Consider 7 compounds from ChEMBL document CHEMBL1201862, “PubChem BioAssay data set” (2004).

Structures are written as SMILES. Active and inactive are the calls of the source. A value given as a limit tells only on which side of the number the result lay.

For assay [1], the target named is T1, Mannose-6-phosphate isomerase (Homo sapiens, UniProt P34949).
T1 sequence (P34949 whole entry): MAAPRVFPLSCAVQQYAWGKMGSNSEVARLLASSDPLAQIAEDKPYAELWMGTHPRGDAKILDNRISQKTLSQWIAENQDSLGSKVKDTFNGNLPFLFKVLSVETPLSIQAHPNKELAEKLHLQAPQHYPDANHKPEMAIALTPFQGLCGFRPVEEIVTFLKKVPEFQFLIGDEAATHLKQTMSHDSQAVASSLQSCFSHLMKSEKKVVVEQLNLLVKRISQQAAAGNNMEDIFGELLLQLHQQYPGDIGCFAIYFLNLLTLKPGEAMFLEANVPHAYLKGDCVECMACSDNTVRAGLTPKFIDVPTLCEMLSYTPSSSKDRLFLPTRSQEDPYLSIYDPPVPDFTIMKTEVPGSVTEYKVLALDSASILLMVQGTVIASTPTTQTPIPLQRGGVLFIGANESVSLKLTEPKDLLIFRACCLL
Nature of the assay: inhibitors of human PMI, primary screen, biochemical, fluorescence intensity, coupled assay (AID 1209).

Assay [2] concerns the target T2, Heat shock factor protein 1 (Mus musculus, UniProt P38532).
T2 sequence (P38532 whole entry): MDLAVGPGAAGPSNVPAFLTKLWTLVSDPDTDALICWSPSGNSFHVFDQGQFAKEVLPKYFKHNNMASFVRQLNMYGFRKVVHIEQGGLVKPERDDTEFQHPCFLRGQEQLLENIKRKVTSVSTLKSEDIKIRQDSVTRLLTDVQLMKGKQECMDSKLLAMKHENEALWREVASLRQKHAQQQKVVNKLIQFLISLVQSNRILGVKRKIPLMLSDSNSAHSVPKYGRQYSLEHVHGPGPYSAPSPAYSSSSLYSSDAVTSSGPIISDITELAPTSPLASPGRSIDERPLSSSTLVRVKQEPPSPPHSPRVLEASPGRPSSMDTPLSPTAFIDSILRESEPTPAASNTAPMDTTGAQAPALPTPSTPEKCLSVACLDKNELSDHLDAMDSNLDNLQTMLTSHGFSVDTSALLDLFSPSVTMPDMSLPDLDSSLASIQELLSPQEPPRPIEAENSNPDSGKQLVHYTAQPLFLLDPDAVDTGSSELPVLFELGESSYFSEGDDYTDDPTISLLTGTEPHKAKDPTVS
Nature of the assay: inhibition of MG132-induced HSE-luciferase signal, confirmation, cell-based, NIH3T3, luminescence, dose retest (AID 2382).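 Note: NIH3T3 fibroblasts with HSF1-driven luciferase reporter stressed by proteasome inhibitor MG132; luminescence from HSF1-driven luciferase expression after 8 hours of MG132 stress.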 The format is functional.

The target of assay [3] is Vasopressin V1a receptor (Homo sapiens, UniProt P37288). Briefly: Fluorescence-based cell-based high throughput dose response screening assay for agonists of the vasopressin 1 receptor (V1R). The class given is functional.
Chain of Vasopressin V1a receptor (P37288 whole entry): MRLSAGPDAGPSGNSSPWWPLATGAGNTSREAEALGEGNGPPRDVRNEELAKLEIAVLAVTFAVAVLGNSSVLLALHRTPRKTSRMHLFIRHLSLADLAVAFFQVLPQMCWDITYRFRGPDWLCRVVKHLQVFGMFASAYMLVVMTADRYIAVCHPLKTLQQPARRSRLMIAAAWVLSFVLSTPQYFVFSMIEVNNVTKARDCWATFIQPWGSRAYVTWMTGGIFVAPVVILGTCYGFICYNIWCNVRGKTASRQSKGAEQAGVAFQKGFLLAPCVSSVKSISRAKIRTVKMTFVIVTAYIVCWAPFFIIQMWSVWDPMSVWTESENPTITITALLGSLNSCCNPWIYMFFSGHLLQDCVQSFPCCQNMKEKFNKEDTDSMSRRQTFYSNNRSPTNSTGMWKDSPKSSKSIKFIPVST
Assay [4] deals with Troponin, cardiac muscle (Homo sapiens, UniProt P19429+P45379+P63316). Nature of the assay: Fluorescence-based biochemical high throughput dose response assay for activators of the calcium sensitivity of cardiac Regulated Thin Filaments (RTF). [Related pubchem assays (depositor defined):AID493008, AID493018, AID504382, AID504383]. The class given is protein-complex assay.
For assay [5], the target named is Oxytocin receptor (Homo sapiens, UniProt P30559). Nature of the assay: Counterscreen for vasopressin 1 receptor (V1R) agonists: Fluorescence-based cell-based high throughput dose response assay for agonists of the Oxytocin Receptor (OXTR). [Related pubchem assays: 2435 (Primary screen (OXTR agonists in singlicate)), 434964 (Confirmation screen (V1R agonists in triplicate)), 434969 (Counterscreen (OXTR agonists in …. The class given is functional.
Chain of Oxytocin receptor (P30559 whole entry): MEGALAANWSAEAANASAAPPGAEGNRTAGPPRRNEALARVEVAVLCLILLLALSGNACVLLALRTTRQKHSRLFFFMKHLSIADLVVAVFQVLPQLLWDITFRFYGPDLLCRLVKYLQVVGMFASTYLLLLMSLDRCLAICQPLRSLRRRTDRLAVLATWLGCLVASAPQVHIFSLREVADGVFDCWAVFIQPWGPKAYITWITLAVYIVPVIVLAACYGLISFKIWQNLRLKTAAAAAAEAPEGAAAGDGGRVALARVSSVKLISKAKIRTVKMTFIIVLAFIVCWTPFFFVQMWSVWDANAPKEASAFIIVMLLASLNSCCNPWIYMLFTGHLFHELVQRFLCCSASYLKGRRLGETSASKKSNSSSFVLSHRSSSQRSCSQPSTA

Assay [6] concerns the target Protein-tyrosine kinase 2-beta (Homo sapiens, UniProt Q14289).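 Note: potency of inhibitors of PYK2 kinase phosphorylation of poly-GT substrate.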
Assay [7] concerns the target T3, Estrogen receptor (Homo sapiens, UniProt P03372).
T3 sequence (P03372 whole entry): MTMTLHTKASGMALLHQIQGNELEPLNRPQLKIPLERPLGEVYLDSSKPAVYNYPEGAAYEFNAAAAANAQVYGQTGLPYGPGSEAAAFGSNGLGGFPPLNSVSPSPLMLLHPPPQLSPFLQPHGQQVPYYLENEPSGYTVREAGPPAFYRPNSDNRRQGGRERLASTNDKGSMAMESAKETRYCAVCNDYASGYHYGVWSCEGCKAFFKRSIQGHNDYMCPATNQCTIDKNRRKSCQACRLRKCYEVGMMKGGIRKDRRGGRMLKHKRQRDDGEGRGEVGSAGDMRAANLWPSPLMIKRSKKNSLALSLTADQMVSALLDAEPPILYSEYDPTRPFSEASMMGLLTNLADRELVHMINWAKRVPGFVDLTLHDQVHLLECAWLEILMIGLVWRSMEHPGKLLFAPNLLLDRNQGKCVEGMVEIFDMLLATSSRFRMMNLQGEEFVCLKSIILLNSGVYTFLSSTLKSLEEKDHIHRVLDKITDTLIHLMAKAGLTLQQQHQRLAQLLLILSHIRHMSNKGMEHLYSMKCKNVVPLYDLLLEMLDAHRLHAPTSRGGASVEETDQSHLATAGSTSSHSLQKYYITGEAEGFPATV
Nature of the assay: potentiators of ERα–SRC-1 coactivator binding, dose response, biochemical, TR-FRET, ERα LBD (AID 737).

Assay [8] has as its target NADPH oxidase 1 (Homo sapiens, UniProt Q9Y5S8). The class given is functional, cell-based.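 Note: Cell-based assay with luminescence read-out, IC50 derived from inhibitor dose-response curves; intracellular ROS from endogenous NOX1 in intact HT29 colon cancer cells; potency of inhibitors that lower the ROS luminescence signal.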
Assay [9] is described as follows: cytotoxicity in HPDE-C7 cells, cell-based, fluorescence, HTS (AID 430). The format is functional. Particulars: Homo sapiens.
Assay [10] can be described thus: cells. The class given is functional.
For assay [11], the target named is T4, Sphingosine 1-phosphate receptor 4 (Homo sapiens, UniProt O95977).
T4 sequence (O95977 whole entry): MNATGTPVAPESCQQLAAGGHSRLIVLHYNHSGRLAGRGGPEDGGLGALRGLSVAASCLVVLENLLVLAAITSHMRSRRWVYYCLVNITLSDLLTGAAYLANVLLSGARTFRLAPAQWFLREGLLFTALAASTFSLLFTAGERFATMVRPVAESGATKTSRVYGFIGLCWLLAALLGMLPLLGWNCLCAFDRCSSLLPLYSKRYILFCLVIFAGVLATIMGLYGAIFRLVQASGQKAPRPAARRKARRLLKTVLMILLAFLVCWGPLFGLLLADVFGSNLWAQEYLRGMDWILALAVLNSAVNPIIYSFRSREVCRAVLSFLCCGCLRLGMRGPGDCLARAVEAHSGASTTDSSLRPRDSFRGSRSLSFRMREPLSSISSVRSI
Nature of the assay: Late stage fluorescence dose response cell-based screening assay for antagonists of the Sphingosine 1-Phosphate Receptor 4 (S1P4). [Related pubchem assays: 1524 (Confirmation screen (S1P4 antagonists).), 1510 (Primary screen (S1P4 antagonists).), 1853 (Summary AID (S1P4 antagonists).), 1692 (Dose response screen (S1P4 antagonists).)]. The class given is functional.

Assay [12] can be described thus: C. albicans growth with fluconazole, confirmation, fluorescence, retest (AID 2467). The class given is functional, cell-based.
Assay [13] in a line: cytotoxicity in KRAS-transformed pancreatic duct cells, primary screen, cell-based, fluorescence, HTS (AID 431).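 Note: cell line used: HPDE-C7K.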 The class given is functional. Particulars: Homo sapiens.
Assay [14] in a line: NIH-3T3 fibroblast cytotoxicity, dose response, cytotoxicity control, cell-based, fluorescence, Alamar Blue, secondary assay (AID 2327).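 Note: NIH-3T3 mouse fibroblasts cultured with fluconazole at 8 µg/mL.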 The format is functional.
Assay [15] addresses Sphingosine 1-phosphate receptor 1 (Homo sapiens, UniProt P21453). The class given is functional.
A short description of assay [16]: Vero E6 cell cytotoxicity, dose response, cytotoxicity control for non-replicating M. tuberculosis project, secondary assay (AID 492998). The format is functional, VeroE6. Particulars: Vero C1008.
Assay [17] in a line: THP-1 cell cytotoxicity, dose response, cytotoxicity control for non-replicating M. tuberculosis project (AID 489025). The class given is functional.
Assay [18] addresses T4, Sphingosine 1-phosphate receptor 4. Briefly: Fluorescence dose response cell-based high throughput screening assay for antagonists of the Sphingosine 1-Phosphate Receptor 4 (S1P4). [Related pubchem assays: 1524 (Confirmation in triplicates.), 1510 (Primary screen.)]. The format is functional.
Assay [19] in a line: growth suppression of PTEN-null colon cells, dose response, cell-based, HCT116 PTEN knockout (AID 1047).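 Note: HCT116 colon tumor cells with PTEN knocked out; cells exposed to compound for 60 hours before readout; potency for loss of cell viability measured by luminescence.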 The class given is functional.
Assay [20] is described as follows: growth suppression of beta-catenin-knockout colon cells, dose response, cell-based, HCT116, human colon tumor (AID 1045).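 Note: HCT116 colon tumor cells with beta catenin knocked out; cells exposed to compound for 60 hours.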 The format is functional.
For assay [21], the target named is T5, Probable nicotinate-nucleotide adenylyltransferase (Staphylococcus aureus (strain N315), UniProt P65502). The class given is functional, Staphylococcus aureus subsp. aureus N315.
T5 sequence (P65502 whole entry): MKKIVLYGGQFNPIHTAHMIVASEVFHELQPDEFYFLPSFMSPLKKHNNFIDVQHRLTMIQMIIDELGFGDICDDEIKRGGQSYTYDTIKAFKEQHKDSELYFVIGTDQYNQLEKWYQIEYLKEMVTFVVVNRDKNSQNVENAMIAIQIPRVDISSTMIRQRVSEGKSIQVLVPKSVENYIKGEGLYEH
The target of assay [22] is Procathepsin L (Homo sapiens, UniProt P07711). Nature of the assay: cathepsin L inhibitors, dose response, counter-screen for M1/M17 aminopeptidase inhibitor project, biochemical, QFRET, 1536-well (AID 2214).
Chain of Procathepsin L (P07711 whole entry): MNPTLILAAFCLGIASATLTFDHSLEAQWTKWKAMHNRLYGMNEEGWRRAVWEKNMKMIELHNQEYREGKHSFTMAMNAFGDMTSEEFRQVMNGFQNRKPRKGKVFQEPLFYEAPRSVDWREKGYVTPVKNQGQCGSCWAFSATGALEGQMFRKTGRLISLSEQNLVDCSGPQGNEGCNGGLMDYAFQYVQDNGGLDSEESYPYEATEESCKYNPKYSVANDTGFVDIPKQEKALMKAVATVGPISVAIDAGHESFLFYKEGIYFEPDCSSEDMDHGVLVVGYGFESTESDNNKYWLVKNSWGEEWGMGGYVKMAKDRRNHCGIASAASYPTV
Assay [23] deals with T5, Probable nicotinate-nucleotide adenylyltransferase. The format is functional, Staphylococcus aureus subsp. aureus N315. Particulars: read-out: IC50_Mean.
The target of assay [24] is Aspartyl aminopeptidase (Plasmodium falciparum 3D7, UniProt Q8I2J3). Briefly: Counterscreen for inhibitors of M1 and M17 aminopeptidases: QFRET-based biochemical high throughput dose response assay for inhibitors of the Plasmodium falciparum M18 Aspartyl Aminopeptidase (PFM18AAP). [Related PubChem assays: 1619 (Screening assay (M17LAP inhibitors).), 1445 (Screening assay (M1AAP inhibitors).)].
Chain of Aspartyl aminopeptidase (Q8I2J3 whole entry): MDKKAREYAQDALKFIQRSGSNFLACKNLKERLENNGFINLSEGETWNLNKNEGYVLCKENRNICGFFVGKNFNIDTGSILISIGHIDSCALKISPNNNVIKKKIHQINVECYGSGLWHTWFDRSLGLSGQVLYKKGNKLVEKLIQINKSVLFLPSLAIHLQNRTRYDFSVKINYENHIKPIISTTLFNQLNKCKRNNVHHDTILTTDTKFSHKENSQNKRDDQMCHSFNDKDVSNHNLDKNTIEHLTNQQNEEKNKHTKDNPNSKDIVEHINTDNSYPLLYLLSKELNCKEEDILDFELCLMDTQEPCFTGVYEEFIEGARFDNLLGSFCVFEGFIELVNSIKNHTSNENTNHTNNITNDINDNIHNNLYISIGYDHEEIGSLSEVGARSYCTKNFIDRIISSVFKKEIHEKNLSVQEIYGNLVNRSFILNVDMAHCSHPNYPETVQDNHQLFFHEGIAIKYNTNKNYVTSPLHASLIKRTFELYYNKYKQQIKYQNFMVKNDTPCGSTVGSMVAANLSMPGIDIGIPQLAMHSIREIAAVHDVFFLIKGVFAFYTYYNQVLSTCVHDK

For assay [25], the target named is T6, Leucine aminopeptidase (Plasmodium falciparum 3D7, UniProt Q8IL11).
T6 sequence (Q8IL11 whole entry): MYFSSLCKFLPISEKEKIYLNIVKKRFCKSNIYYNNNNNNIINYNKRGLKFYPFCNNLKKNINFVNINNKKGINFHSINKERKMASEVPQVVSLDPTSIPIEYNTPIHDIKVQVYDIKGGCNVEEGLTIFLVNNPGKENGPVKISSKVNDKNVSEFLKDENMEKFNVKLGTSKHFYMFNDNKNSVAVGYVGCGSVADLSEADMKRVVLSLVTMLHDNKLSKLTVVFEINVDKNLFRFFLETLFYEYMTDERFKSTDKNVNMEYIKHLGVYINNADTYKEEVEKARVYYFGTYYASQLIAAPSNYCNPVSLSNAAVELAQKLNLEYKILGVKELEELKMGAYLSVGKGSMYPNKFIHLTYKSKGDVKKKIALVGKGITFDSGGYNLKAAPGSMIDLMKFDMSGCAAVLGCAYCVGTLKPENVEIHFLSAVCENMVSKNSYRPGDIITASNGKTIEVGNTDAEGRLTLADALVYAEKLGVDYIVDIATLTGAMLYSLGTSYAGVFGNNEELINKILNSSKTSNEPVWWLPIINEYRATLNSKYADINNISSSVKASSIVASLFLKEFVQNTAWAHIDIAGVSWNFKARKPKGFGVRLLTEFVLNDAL
Nature of the assay: P. falciparum M17LAP inhibitors, primary screen, biochemical, fluorogenic H-Leu-NHMec substrate, 1536-well (AID 1619). The class given is functional.

The target in assay [26] is Lytic switch protein BZLF1 (Epstein-Barr virus (strain B95-8) (HHV-4) (Human herpesvirus 4), UniProt P03206). Briefly: EBV ZTA inhibitors, dose response, counter-screen for EBNA-1 inhibitor project, biochemical, fluorescence polarization, Epstein-Barr virus, 1536-well (AID 2377).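 Note: fluorescence polarization of Cy5-labelled ZRE DNA probe bound by purified Zta.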 Set-up: species or system human gammaherpesvirus 4.
Chain of Lytic switch protein BZLF1 (P03206 whole entry): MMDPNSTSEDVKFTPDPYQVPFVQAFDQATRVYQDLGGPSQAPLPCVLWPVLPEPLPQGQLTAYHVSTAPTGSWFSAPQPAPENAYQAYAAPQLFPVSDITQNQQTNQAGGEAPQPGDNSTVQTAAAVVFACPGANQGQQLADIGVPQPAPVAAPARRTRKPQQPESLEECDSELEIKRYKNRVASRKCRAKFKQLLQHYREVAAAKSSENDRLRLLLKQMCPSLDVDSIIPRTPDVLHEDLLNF
Assay [27] concerns the target Epstein-Barr nuclear antigen 1 (Epstein-Barr virus (strain B95-8) (HHV-4) (Human herpesvirus 4), UniProt P03211). Briefly: EBNA-1 inhibitors, dose response, biochemical, fluorescence polarization, 1536-well (AID 2381).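 Note: fluorescence polarization of a Cy5 DNA probe bound by EBNA-1 protein.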 Set-up: species or system human gammaherpesvirus 4.
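Throughout, for IC50 Mean: confirmatory dose-response retesting of NadD inhibitor hits first found in an ultra-high-throughput screen.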

Chain of Protein-tyrosine kinase 2-beta (Q14289 whole entry): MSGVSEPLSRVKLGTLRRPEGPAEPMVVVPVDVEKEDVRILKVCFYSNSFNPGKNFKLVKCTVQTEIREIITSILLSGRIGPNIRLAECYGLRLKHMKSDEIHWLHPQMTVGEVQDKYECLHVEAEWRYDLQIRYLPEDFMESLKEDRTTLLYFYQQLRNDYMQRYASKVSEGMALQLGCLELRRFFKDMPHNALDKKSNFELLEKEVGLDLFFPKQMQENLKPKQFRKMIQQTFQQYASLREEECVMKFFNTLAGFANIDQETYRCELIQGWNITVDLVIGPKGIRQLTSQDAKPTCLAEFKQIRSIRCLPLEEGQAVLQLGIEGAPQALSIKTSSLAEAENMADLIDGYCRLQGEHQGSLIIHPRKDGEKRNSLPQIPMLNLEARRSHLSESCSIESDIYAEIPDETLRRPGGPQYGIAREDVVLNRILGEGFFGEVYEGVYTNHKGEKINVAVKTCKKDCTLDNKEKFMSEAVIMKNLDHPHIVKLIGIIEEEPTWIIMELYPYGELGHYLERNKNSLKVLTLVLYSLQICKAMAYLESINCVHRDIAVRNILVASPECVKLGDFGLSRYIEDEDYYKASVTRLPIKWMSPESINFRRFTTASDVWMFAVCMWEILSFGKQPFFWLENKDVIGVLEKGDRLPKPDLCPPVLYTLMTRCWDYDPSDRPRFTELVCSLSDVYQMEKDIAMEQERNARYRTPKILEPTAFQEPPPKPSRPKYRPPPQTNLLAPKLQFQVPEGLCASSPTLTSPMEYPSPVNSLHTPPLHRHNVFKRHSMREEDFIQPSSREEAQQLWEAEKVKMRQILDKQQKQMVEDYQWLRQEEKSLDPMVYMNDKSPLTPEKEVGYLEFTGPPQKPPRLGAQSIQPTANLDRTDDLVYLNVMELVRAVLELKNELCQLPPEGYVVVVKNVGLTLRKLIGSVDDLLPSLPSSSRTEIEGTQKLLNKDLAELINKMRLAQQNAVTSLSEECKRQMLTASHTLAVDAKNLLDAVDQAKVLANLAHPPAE
Chain of NADPH oxidase 1 (Q9Y5S8 whole entry): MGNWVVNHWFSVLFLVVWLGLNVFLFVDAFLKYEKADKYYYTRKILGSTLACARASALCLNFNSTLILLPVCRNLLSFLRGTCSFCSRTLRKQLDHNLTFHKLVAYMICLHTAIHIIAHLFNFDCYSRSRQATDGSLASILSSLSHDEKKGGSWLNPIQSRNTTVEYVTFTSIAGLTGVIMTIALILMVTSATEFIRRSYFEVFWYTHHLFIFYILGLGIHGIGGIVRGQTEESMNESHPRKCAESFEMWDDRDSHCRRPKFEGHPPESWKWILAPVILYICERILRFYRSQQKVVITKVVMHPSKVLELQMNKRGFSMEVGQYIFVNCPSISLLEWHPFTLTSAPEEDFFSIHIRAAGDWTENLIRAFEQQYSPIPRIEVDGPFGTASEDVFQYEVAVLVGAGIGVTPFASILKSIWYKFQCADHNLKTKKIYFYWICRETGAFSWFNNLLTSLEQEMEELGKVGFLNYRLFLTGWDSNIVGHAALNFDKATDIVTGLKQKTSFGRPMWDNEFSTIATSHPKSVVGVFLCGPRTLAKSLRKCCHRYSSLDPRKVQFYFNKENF
Chain of Epstein-Barr nuclear antigen 1 (P03211 whole entry): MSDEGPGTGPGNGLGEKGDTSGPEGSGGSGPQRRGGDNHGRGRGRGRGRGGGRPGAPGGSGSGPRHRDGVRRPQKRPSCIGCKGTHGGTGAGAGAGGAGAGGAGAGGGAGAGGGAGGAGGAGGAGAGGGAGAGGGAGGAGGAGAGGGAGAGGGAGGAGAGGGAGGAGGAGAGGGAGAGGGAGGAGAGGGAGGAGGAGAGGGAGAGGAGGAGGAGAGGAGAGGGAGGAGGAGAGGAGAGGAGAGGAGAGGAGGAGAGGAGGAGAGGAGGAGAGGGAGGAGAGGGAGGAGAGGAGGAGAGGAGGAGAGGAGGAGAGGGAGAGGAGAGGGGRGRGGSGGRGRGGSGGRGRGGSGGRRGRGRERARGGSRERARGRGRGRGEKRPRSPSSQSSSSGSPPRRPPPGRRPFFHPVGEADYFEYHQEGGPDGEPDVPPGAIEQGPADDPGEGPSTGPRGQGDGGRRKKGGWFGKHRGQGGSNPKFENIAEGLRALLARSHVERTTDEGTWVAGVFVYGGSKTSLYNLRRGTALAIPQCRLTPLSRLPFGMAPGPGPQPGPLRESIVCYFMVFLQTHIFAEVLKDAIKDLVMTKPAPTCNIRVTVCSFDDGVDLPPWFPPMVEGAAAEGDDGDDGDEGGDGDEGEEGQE
Chain of Sphingosine 1-phosphate receptor 1 (P21453 whole entry): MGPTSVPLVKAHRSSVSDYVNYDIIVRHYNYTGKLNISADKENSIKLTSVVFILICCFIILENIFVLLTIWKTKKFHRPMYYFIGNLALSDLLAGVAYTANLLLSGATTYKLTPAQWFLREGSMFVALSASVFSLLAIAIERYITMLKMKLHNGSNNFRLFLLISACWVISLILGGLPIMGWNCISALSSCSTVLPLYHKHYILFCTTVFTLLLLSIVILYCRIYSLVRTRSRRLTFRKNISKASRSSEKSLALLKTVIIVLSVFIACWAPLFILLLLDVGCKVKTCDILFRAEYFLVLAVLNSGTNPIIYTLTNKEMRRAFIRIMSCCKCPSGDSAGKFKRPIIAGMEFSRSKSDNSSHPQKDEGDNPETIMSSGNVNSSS

On to `Cc1nn(-c2ccccc2)c(S)c1/C=N/c1cccc([N+](=O)[O-])c1`, for which the IC50 in assay [1] is 19.1 µM (active). For the same compound, in [2], the EC50 is on record as > 195 µM (not active).

Regarding `CCSC1=N/C(=C\C=C2/Oc3ccccc3N2CC)C(=O)S1`, the EC50 is > 29.9 µM (not active) in assay [3], 4.53 µM (active) in assay [4] and > 29.9 µM (not active) in [5].

With `O=c1cc(-c2ccco2)oc2c1ccc1ccccc12`, the IC50 in [6] is listed as > 69.5 µM (not active). Moreover, the EC50 in assay [7] is 12.4 µM (active).

With `C(=N\Nc1ccccc1)/c1ccccc1`, the IC50 in assay [8] is 13 µM (active).

Turning to `CCCS(=O)(=O)c1nnnn1-c1cccc(OC)c1`, the EC50 was 6.57 µM (active) in [9]; 2.49 µM (active) in [12]; 6.25 µM (active) in assay [13]; 5.1 µM (inconclusive) in assay [14]; 7.57 µM (active) in assay [19]; 6.66 µM (active) in [20]. For the same compound, the IC50 in [10] was 5.35 µM (active); in assay [11], 4.51 µM (not active); in assay [15], 20.1 µM (not active); in assay [18] it was 0.951 µM (active). For the same compound, the cytotoxic concentration (CC50) in [16] was 11.7 µM (active); in [17] it was 17.8 µM (active).

On to `CCn1c2ccccc2c2cc(NC(=O)CSc3nccc(O)n3)ccc21`, for which the IC50 was 15.3 µM (active) in [21]; > 59.6 µM (not active) in [22]; 42.4 µM (active) in assay [23]; > 73.5 µM (not active) in assay [24]; 1.41 µM (active) in assay [25].

As for `CN1CCN(c2ccc(-c3cccc(NC(=O)COc4ccc(Cl)cc4Cl)c3)nn2)CC1`, the IC50 in assay [26] is > 111 µM (not active); in [27], > 148 µM (not active).
